The test system of this assay is BDF1 mice, Adenocarcinoma 755 s.c., tumor weight T/C. The assay is described as follows: NCI In Vivo Anticancer Drug Screen. Data for tumor model Adenocarcinoma 755 (subcutaneous) in B6D2F1 (BDF1) mice. The following applies: endpoint: mean tumor weight, higher = larger tumour. The method, then:
The antitumor activity of compounds was measured in mice bearing transplantable tumors. Survival or tumor size were measured and the results are expressed as the measurement made in the treated group (T) divided by the measurement made in the vehicle treated control group (C). The tumor model used in this assay is Adenocarcinoma 755 (subcutaneous) in B6D2F1 (BDF1) mice

[1] abbreviates: dose: 25.0 mg/kg/injection, schedule: Q01DX011 (ip), vehicle: saline.
The mark [2] stands for this setting: dose: 15.0 mg/kg/injection, schedule: Q01DX011 (ip), vehicle: methylcellulose (MC).
Where [3] appears, read: dose: 31.0 mg/kg/injection, schedule: Q01DX011 (ip), vehicle: methylcellulose (MC).
[4] abbreviates: dose: 62.0 mg/kg/injection, schedule: Q01DX011 (ip), vehicle: methylcellulose (MC).
The mark [5] stands for this setting: dose: 250.0 mg/kg/injection, schedule: Q01DX011 (ip), vehicle: methylcellulose (MC).

SMILES strings stand for the structures. Values joined by “and” are separate entries in the source; they are usually repeats but may differ in a detail not shown here. Equal entries are not always repeated.

In general, T/C refers to the ratio of treated to control.

In the case of `CC1([CH2][Hg][I])OCCOC1[CH2][Hg][I]` (configuration not stated), the T/C reads like this: (dose: 2.5 mg/kg/injection, schedule: Q01DX011 (ip), vehicle: saline) 57 % of control; (dose: 5.0 mg/kg/injection, schedule: Q01DX011 (ip), vehicle: saline) 71 % of control; (dose: 10.0 mg/kg/injection, schedule: Q01DX011 (ip), vehicle: saline) 57 % of control; (dose: 10.9 mg/kg/injection, schedule: Q01DX011 (ip), vehicle: saline) 36 % of control; (dose: 11.0 mg/kg/injection, schedule: Q01DX011 (ip), vehicle: carboxymethylcellulose (CMC)) 87 % of control; (dose: 20.0 mg/kg/injection, schedule: Q01DX011 (ip), vehicle: saline) 7 % of control.

With `CCCCS(=O)(=O)OCCCCOS(=O)(=O)CCCC`, the T/C (dose: 45.0 mg/kg/injection, schedule: Q01DX011 (ip), vehicle: carboxymethylcellulose (CMC)) is 108 % of control; the T/C (dose: 90.0 mg/kg/injection, schedule: Q01DX011 (ip), vehicle: carboxymethylcellulose (CMC)) was 51 % of control; the T/C (dose: 180.0 mg/kg/injection, schedule: Q01DX011 (ip), vehicle: carboxymethylcellulose (CMC)) is 41 % of control; the T/C (dose: 360.0 mg/kg/injection, schedule: Q01DX011 (ip), vehicle: carboxymethylcellulose (CMC)) was 16 % of control.

As for `CC(=O)OCC1OC(n2cnc3c(=O)[nH]c(N)nc32)CC1OC(C)=O` (configuration not stated), the T/C was 115 % of control (dose: 30.0 mg/kg/injection, schedule: Q01DX011 (ip), vehicle: carboxymethylcellulose (CMC)); 95 % of control (dose: 60.0 mg/kg/injection, schedule: Q01DX011 (ip), vehicle: carboxymethylcellulose (CMC)); 94 % of control (dose: 120.0 mg/kg/injection, schedule: Q01DX011 (ip), vehicle: carboxymethylcellulose (CMC)); 115 % of control (dose: 240.0 mg/kg/injection, schedule: Q01DX011 (ip), vehicle: carboxymethylcellulose (CMC)).

Take `Cn1cnc2nc[nH]c2c1=O`: the T/C is 95 % of control (dose: 31.2 mg/kg/injection, schedule: Q01DX011 (ip), vehicle: carboxymethylcellulose (CMC)); 99 % of control (dose: 62.5 mg/kg/injection, schedule: Q01DX011 (ip), vehicle: carboxymethylcellulose (CMC)); 108 % of control (dose: 125.0 mg/kg/injection, schedule: Q01DX011 (ip), vehicle: carboxymethylcellulose (CMC)); 116 % of control (dose: 250.0 mg/kg/injection, schedule: Q01DX011 (ip), vehicle: carboxymethylcellulose (CMC)).

On to `c1nc2c3c(n1)ncn3CCN2`, for which the T/C runs as follows: under setting [1], 85 % of control; (dose: 75.0 mg/kg/injection, schedule: Q01DX011 (ip), vehicle: saline) 74 % of control; (dose: 225.0 mg/kg/injection, schedule: Q01DX011 (ip), vehicle: saline) 99 % of control.

For the molecule `Nc1nc(SCc2ccc([N+](=O)[O-])cc2)c2[nH]cnc2n1`, the T/C runs as follows: (dose: 600.0 mg/kg/injection, schedule: Q01DX011 (ip), vehicle: carboxymethylcellulose (CMC)) 10 % of control; (dose: 750.0 mg/kg/injection, schedule: Q01DX011 (ip), vehicle: carboxymethylcellulose (CMC)) 10 % of control; (dose: 800.0 mg/kg/injection, schedule: Q01DX011 (ip), vehicle: carboxymethylcellulose (CMC)) 8 % of control; (dose: 900.0 mg/kg/injection, schedule: Q01DX011 (ip), vehicle: carboxymethylcellulose (CMC)) 1 % of control and 5 % of control; (dose: 1000.0 mg/kg/injection, schedule: Q01DX011 (ip), vehicle: carboxymethylcellulose (CMC)) 6 % of control.

As for `Cn1c(=O)c2c(nc(N/N=C/C(Cl)Cl)n2C)n(C)c1=O`, the T/C runs as follows: (dose: 2.8 mg/kg/injection, schedule: Q01DX011 (ip), vehicle: methylcellulose (MC)) 79 % of control; (dose: 8.3 mg/kg/injection, schedule: Q01DX011 (ip), vehicle: methylcellulose (MC)) 71 % of control.

Consider `COC(=O)C1C2CC3c4[nH]c5cc(OC)ccc5c4CCN3CC2CC(OC(=O)c2cc(OC)c(OC)c(OC)c2)C1OC` (configuration not stated), for which the T/C runs as follows: (dose: 0.5 mg/kg/injection, schedule: Q01DX011 (ip), vehicle: saline) 109 % of control; (dose: 2.0 mg/kg/injection, schedule: Q01DX011 (ip), vehicle: saline) 101 % of control.

Take `Nc1nc(=S)cc(Nc2ccc(Cl)c(Cl)c2)[nH]1`: the T/C reads like this: under setting [2], 114 % of control; under setting [3], 92 % of control.

On to `CCc1c(Cl)nc(N)nc1Nc1ccccc1C`, for which the T/C by setting is: under setting [2], 115 % of control; under setting [4], 88 % of control; (dose: 125.0 mg/kg/injection, schedule: Q01DX011 (ip), vehicle: methylcellulose (MC)) 114 % of control; under setting [5], 94 % of control.

On to `Cc1ccccc1N=Nc1ccc(N=Nc2ccc(O)cc2)c(C)c1`, for which the T/C by setting is: (dose: 1.87 mg/kg/injection, schedule: Q01DX011 (ip), vehicle: methylcellulose (MC)) 74 % of control; (dose: 1.87 mg/kg/injection, schedule: Q01DX011 (ip), vehicle: saline) 77 % of control; (dose: 3.25 mg/kg/injection, schedule: Q01DX011 (ip), vehicle: methylcellulose (MC)) 89 % of control; (dose: 3.25 mg/kg/injection, schedule: Q01DX011 (ip), vehicle: saline) 101 % of control; (dose: 7.5 mg/kg/injection, schedule: Q01DX011 (ip), vehicle: methylcellulose (MC)) 101 % of control; (dose: 7.5 mg/kg/injection, schedule: Q01DX011 (ip), vehicle: saline) 68 % of control. Where the note is “dose: 15.0 mg/kg/injection, schedule: Q01DX011 (ip), vehicle: saline”, the T/C is 88 % of control.

As for `CC1CN1P(=O)(N1CCCC1)N1CC1C` (configuration not stated), the T/C is, setting by setting: (dose: 6.3 mg/kg/injection, schedule: Q01DX011 (ip), vehicle: saline) 73 % of control; (dose: 12.5 mg/kg/injection, schedule: Q01DX011 (ip), vehicle: saline) 58 % of control; under setting [1], 19 % of control and 20 % of control; (dose: 50.0 mg/kg/injection, schedule: Q01DX011 (ip), vehicle: saline) 2 % of control and 3 % of control.

With `COc1cc2c(cc1I)-c1c(cc(OC)c(OC)c1OC)CC[C@@H]2NC(C)=O`, the T/C by setting is: (dose: 27.5 mg/kg/injection, schedule: Q01DX011 (ip), vehicle: carboxymethylcellulose (CMC)) 98 % of control; (dose: 27.5 mg/kg/injection, schedule: Q01DX011 (ip), vehicle: saline) 106 % of control; (dose: 55.0 mg/kg/injection, schedule: Q01DX011 (ip), vehicle: carboxymethylcellulose (CMC)) 81 % of control; (dose: 55.0 mg/kg/injection, schedule: Q01DX011 (ip), vehicle: saline) 86 % of control; (dose: 110.0 mg/kg/injection, schedule: Q01DX011 (ip), vehicle: carboxymethylcellulose (CMC)) 40 % of control; (dose: 110.0 mg/kg/injection, schedule: Q01DX011 (ip), vehicle: saline) 58 % of control. The T/C (dose: 220.0 mg/kg/injection, schedule: Q01DX011 (ip), vehicle: saline) is 16 % of control.

Regarding `CC(=O)[C@H]1CC[C@H]2[C@@H]3CCC4=CC(=O)CC[C@]4(C)[C@H]3CC[C@]12C`, the T/C is, setting by setting: (dose: 250.0 mg/kg/injection, schedule: Q01DX011 (sc), vehicle: steriod suspending solution) 97 % of control; (dose: 500.0 mg/kg/injection, schedule: Q01DX011 (sc), vehicle: steriod suspending solution) 46 % of control.

Regarding `CS(=O)(=O)OCC(=O)N1CCN(C(=O)COS(C)(=O)=O)CC1`, the T/C (dose: 25.0 mg/kg/injection, schedule: Q01DX011 (ip), vehicle: methylcellulose (MC)) is 63 % of control and the T/C (dose: 75.0 mg/kg/injection, schedule: Q01DX011 (ip), vehicle: methylcellulose (MC)) was 67 % of control.

On to `CCc1c(Cl)nc(N)nc1Nc1ccccc1Br`, for which the T/C was 96 % of control under setting [2], 101 % of control under setting [3], 76 % of control under setting [4] and 75 % of control under setting [5].
